From PubChem BioAssay (NCI)
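At the GI50, growth is halved. The concentration for full growth arrest is given as TGI.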

Experiments:
Assay in all cases: inhibition of tumour cell growth, NCI panel, 384-well format; in the data active = GI50 below about 0.43 µM; inactive = the rest
A498 renal = system: A498 renal
A549 NSCLC = system: A549 NSCLC
ACHN renal = system: ACHN renal
CAKI-1 renal = system: CAKI-1 renal
COLO 205 colon = system: COLO 205 colon
DU-145 prostate = system: DU-145 prostate
EKVX NSCLC = system: EKVX NSCLC
HCC-2998 colon = system: HCC-2998 colon
HCT-116 colon = system: HCT-116 colon
HCT-15 colon = system: HCT-15 colon
HL-60(TB) leukemia = system: HL-60(TB) leukemia
HOP-62 NSCLC = system: HOP-62 NSCLC
HOP-92 NSCLC = system: HOP-92 NSCLC
IGROV1 ovarian = system: IGROV1 ovarian
K-562 leukemia = system: K-562 leukemia
KM12 colon = system: KM12 colon
LOX IMVI melanoma = system: LOX IMVI melanoma
M14 melanoma = system: M14 melanoma
MALME-3M melanoma = system: MALME-3M melanoma
MCF7 breast = system: MCF7 breast
MDA-MB-231 breast = system: MDA-MB-231 breast
MDA-MB-435 melanoma = system: MDA-MB-435 melanoma
MDA-MB-468 breast = system: MDA-MB-468 breast
NCI-H226 lung = system: NCI-H226 lung
NCI-H460 NSCLC = system: NCI-H460 NSCLC
NCI-H522 lung = system: NCI-H522 lung
NCI/ADR-RES ovarian = system: NCI/ADR-RES ovarian
OVCAR-3 ovarian = system: OVCAR-3 ovarian
OVCAR-4 ovarian = system: OVCAR-4 ovarian
OVCAR-5 ovarian = system: OVCAR-5 ovarian
OVCAR-8 ovarian = system: OVCAR-8 ovarian
PC-3 prostate = system: PC-3 prostate
RPMI-8226 leukemia = system: RPMI-8226 leukemia
SF-268 CNS = system: SF-268 CNS
SF-295 CNS = system: SF-295 CNS
SF-539 CNS = system: SF-539 CNS
SK-MEL-2 melanoma = system: SK-MEL-2 melanoma
SK-MEL-28 melanoma = system: SK-MEL-28 melanoma
SK-MEL-5 melanoma = system: SK-MEL-5 melanoma
SK-OV-3 ovarian = system: SK-OV-3 ovarian
SNB-19 CNS = system: SNB-19 CNS
SNB-75 CNS = system: SNB-75 CNS
SW-620 colon = system: SW-620 colon
T-47D breast = system: T-47D breast
U251 glioblastoma = system: U251 glioblastoma
UACC-257 melanoma = system: UACC-257 melanoma
UO-31 renal = system: UO-31 renal

Cc1ccc2c(Nc3cccc(Cl)c3F)ncc(NC(=O)c3csc4c(N)ncnc34)c2c1
19.3 µM: TGI (COLO 205 colon)
59 µM: TGI (NCI-H522 lung)
0.186 µM: TGI (M14 melanoma)
0.0923 µM: TGI (SK-MEL-28 melanoma)
0.537 µM: TGI (HCC-2998 colon)
0.0436 µM: TGI (MALME-3M melanoma)
18.5 µM: TGI (RPMI-8226 leukemia)
55 µM: TGI (MDA-MB-435 melanoma)
active: GI50 (COLO 205 colon) 0.0242 µM | GI50 (HCC-2998 colon) 0.115 µM | GI50 (HCT-116 colon) 0.162 µM | GI50 (HL-60(TB) leukemia) 0.0159 µM | GI50 (LOX IMVI melanoma) 0.0418 µM | GI50 (M14 melanoma) 0.0224 µM | GI50 (MALME-3M melanoma) 0.0124 µM | GI50 (MDA-MB-231 breast) 0.0195 µM | GI50 (MDA-MB-435 melanoma) 0.0481 µM | GI50 (OVCAR-5 ovarian) 0.178 µM | GI50 (SK-MEL-2 melanoma) 0.0346 µM | GI50 (SK-MEL-28 melanoma) 0.0179 µM | GI50 (SK-MEL-5 melanoma) 0.0518 µM | GI50 (UACC-257 melanoma) 0.0668 µM | GI50 (UO-31 renal) 0.258 µM
0.148 µM: TGI (SK-MEL-2 melanoma)
23.1 µM: TGI (SK-MEL-5 melanoma)
52.4 µM: TGI (MDA-MB-468 breast)
16.3 µM: TGI (MDA-MB-231 breast)
43.1 µM: TGI (OVCAR-8 ovarian)
99.4 µM: TGI (KM12 colon)
1.18 µM: TGI (LOX IMVI melanoma)
12.8 µM: TGI (HL-60(TB) leukemia)
73.7 µM: TGI (SF-268 CNS)
0.569 µM: TGI (UACC-257 melanoma)
43 µM: TGI (A498 renal)
7.97 µM: TGI (HOP-92 NSCLC)
97.9 µM: TGI (IGROV1 ovarian)
> 100 µM: TGI (A549 NSCLC) | TGI (ACHN renal) | TGI (CAKI-1 renal) | TGI (DU-145 prostate) | TGI (EKVX NSCLC) | TGI (HCT-15 colon) | TGI (HOP-62 NSCLC) | TGI (K-562 leukemia) | TGI (MCF7 breast) | TGI (NCI-H226 lung) | TGI (NCI-H460 NSCLC) | TGI (NCI/ADR-RES ovarian) | TGI (OVCAR-4 ovarian) | TGI (OVCAR-5 ovarian) | TGI (PC-3 prostate) | TGI (SF-295 CNS) | TGI (SF-539 CNS) | TGI (SK-OV-3 ovarian) | TGI (SNB-19 CNS) | TGI (SNB-75 CNS) | TGI (SW-620 colon) | TGI (T-47D breast) | TGI (U251 glioblastoma) | TGI (UO-31 renal)
84.7 µM: TGI (OVCAR-3 ovarian)
inactive: GI50 (A498 renal) 3.07 µM | GI50 (A549 NSCLC) 17.5 µM | GI50 (ACHN renal) 12.7 µM | GI50 (CAKI-1 renal) 0.577 µM | GI50 (DU-145 prostate) 22 µM | GI50 (EKVX NSCLC) 10.8 µM | GI50 (HCT-15 colon) 26.3 µM | GI50 (HOP-62 NSCLC) 11.5 µM | GI50 (HOP-92 NSCLC) 0.542 µM | GI50 (IGROV1 ovarian) 1.6 µM | GI50 (K-562 leukemia) 0.592 µM | GI50 (KM12 colon) 0.54 µM | GI50 (MCF7 breast) 7.47 µM | GI50 (MDA-MB-468 breast) 18.3 µM | GI50 (NCI-H226 lung) 0.978 µM | GI50 (NCI-H460 NSCLC) 13 µM | GI50 (NCI-H522 lung) 13.1 µM | GI50 (NCI/ADR-RES ovarian) 19.7 µM | GI50 (OVCAR-3 ovarian) 22.2 µM | GI50 (OVCAR-4 ovarian) 44.6 µM | GI50 (OVCAR-8 ovarian) 13.2 µM | GI50 (PC-3 prostate) 57.3 µM | GI50 (RPMI-8226 leukemia) 1.6 µM | GI50 (SF-268 CNS) 21.9 µM | GI50 (SF-295 CNS) 93.7 µM | GI50 (SF-539 CNS) 29.1 µM | GI50 (SK-OV-3 ovarian) 27 µM | GI50 (SNB-19 CNS) 55 µM | GI50 (SNB-75 CNS) 33.6 µM | GI50 (SW-620 colon) 0.721 µM | GI50 (T-47D breast) 19.5 µM | GI50 (U251 glioblastoma) 22.3 µM
19.8 µM: TGI (HCT-116 colon)
